Measurements reported in paper PMC6433232, “Targeting mitochondria in cancer therapy could provide a basis for the selective anti-cancer activity” (PLoS ONE, 2019).
Where two headings read alike, the source gives them in different places.

Experiments:
[1] = molecular target: T1, human GAPDH enzyme (Homo sapiens, UniProt P04406); test: GAPDH activity assay in MIA PaCa-2 cells; type: cell-based; conditions: 2 h, read-out: GAPDH, enzyme residual activity as compared to DMSO-treated sample
T1 construct: endogenous in cells; host or cells: MIA PaCa-2 cells
Description: Cells were incubated for 2 h with either compounds (30 μM) or DMSO in a 6-well plate. Next, cells were collected in 200 μl of PBS and disrupted by sonication. Insoluble material was removed by centrifugation. The level of GAPDH activity was determined by GAPDH activity assay kit (BioVision).
As a final step, we evaluated the inhibitory activity of the selected compounds against human GAPDH enzyme in a cell-based assay using MIA PaCa-2 cells (Table 1). Cells were pre-incubated with compounds for 2 h at 37°C followed by cell lysis using sonication and GAPDH activity assay. The ability of compounds to inhibit GAPDH was expressed as percentage of GAPDH residual activity with respect to DMSO-treated cells. […] Similar to the GSR activity assay, only two of the most toxic compounds 31 and 32, were able to inhibit GAPDH by 95 and 97%, respectively.

[2] = tested on: human primary hepatocytes; test: cells; conditions: Hepatocyte, read-out: EC50, μM Hepatocytes
From the text: (§3) We selected hepatocytes as normal cells because hepatocytes are mediate toxicity to multiple drugs and are used as a standard to assess toxicity of drugs in vitro [28]. […] For comparison with the standard of care, doxorubicin was also included in this analysis.

[3] = tested on: hepatocytes; test: Hydrogen peroxide cell-based assay (ROS induction), hepatocytes; design: species or system Human; conditions: 30 μM; hydrogen peroxide level relative to DMSO-treated cells (100%)
Description: (§1) Cells were incubated for 2 h with either compounds (30 μM) or DMSO in a 96-well plate. After the treatment, 80 μl of cell culture medium was collected and the level of hydrogen peroxide was determined using a Hydrogen Peroxide Cell-Based Assay kit (Cayman).
(§2) Cells were incubated with the compounds for 4 h and the level of ROS induction was measured by a hydrogen peroxide cell-based assay kit. Compounds were assayed at a fixed concentration of 30 μM and the measured level of hydrogen peroxide was expressed as percentage in relation to DMSO-treated cells (100%). […] This distinction was more evident for compounds with the highest selective cytotoxicity index. […] We conclude that the selective induction of ROS in cancer cells is required but not sufficient factor for the selective anti-tumor activity.

[4] = tested on: MIA PaCa-2 cells; test: Hydrogen peroxide cell-based assay (ROS induction), MIA PaCa-2 cells; conditions: Homo sapiens, hydrogen peroxide level relative to DMSO-treated cells (100%), read-out: ROS increase, % MIA PaCa-2
Description: as §1, §2

[5] = Distribution coefficient LogD; type: physicochemical; conditions: pH 7.4
From the text: We conclude that the analysis of the octanol-water partitioning is not sufficient to establish a link between degree of lipophilicity and biological activities of the selected compounds.

[6] = in vitro; conditions: human
From the text: as §3

[7] = tested on: pancreatic cancer MIA PaCa-2 cells; test: cells; conditions: for EC50 / CC50: Homo sapiens; for EC50: MIA PaCa-2, read-out: EC50, μM MIA PaCa-2; for CC50: MIA PaCa-2, read-out: LC50 MIA PaCa-2
Description: Fig 1 A, Structure of NSC130362. B, Dose response curve of NSC130362 in MIA PaCa-2 cells. Cells were pre-incubated with NSC130362 for 2 h followed by addition of ATO (5 μM) and incubation for an additional 24 h. At the end of the treatment, the ratio of dead cells was determined by a CellTiterGlo reagent.

[8] = tested on: Complex I (bovine heart mitochondria); test: MitoCheck Complex I activity assay; conditions: 30 μM; for Mito Check I, enzyme residual activity as compared to DMSO-treated sample: bovine heart mitochondria, NADH oxidation
Description: MitoCheck Complex I activity was determined as described in the manual of the manufacturer’s manual (Cayman). Briefly, compounds (30 μM) or DMSO were mixed with the Complex I activity assay buffer that contained bovine heart mitochondria reagent, NADH, and ubiquinone in the presence of KCN to inhibit complex IV activity. The level of Complex I activity was monitored in a kinetic assay of NADH oxidation by measuring a decrease in absorbance at 340 nm. The residual Complex I activity was calculated by dividing the rate of compound wells by the rate of DMSO wells for the linear portion of the curve.
To test possible effects of compounds on ETC, we analyzed the Complex I-mediated NADH oxidation using a MitoCheck Complex I Activity Assay Kit. The level of NADH oxidation was measured by a decrease in absorbance at 340 nm and expressed as percentage of residual activity in relation to DMSO-treated mitochondria (Table 1). […] Complex I activity was estimated by the rate of NADH oxidation which was also affected by NADH/NADPH-dehydrogenase-mediated redox cycling.

[9] = tested on: Recombinant NADH/NADPH dehydrogenase; test: NADH/NADPH dehydrogenase-mediated ROS generation assay; type: biochemical; conditions: 30 μM, 4 h at 37°C; for H2O2 generation, NADH/NADPH dehydrogenase -: absence of NADH/NADPH dehydrogenase; for H2O2 generation, NADH/NADPH dehydrogenase +: presence of NADH/NADPH dehydrogenase
Description: Recombinant NADH/NADPH dehydrogenase (0.5 units/well) in a 96-well plate was incubated in 100 μl of the assay buffer (50 mM potassium phosphate buffer, pH 7.5 supplemented with 1 mM EDTA) containing NADPH (3 μM) and superoxide dismutase (SOD) (100 units/well) with and without compound (30 μM) for 4 h at 37°C. At the end of incubation, the level of hydrogen peroxide was measured using a Hydrogen Peroxide Assay kit (Cayman). Control samples were without NADH/NADPH dehydrogenase. The rate of NADH/NADPH dehydrogenase- and compound-mediated ROS production was determined by subtracting values that were obtained in the absence of NADPH dehydrogenase. One unit of NADH/NADPH dehydrogenase was defined as the amount of enzyme required to reduce 1.0 μmole cytochrome C per min/mg in the presence of menadione substrate at 37°C. One unit of SOD was defined as the amount of enzyme required to inhibit reduction of cytochrome C by 50% in a coupled system with xanthine oxidase at pH 7.8 at 25°C in a 3.0 mL reaction volume. Xanthine oxidase concentration should produce an initial ΔA550 of 0.025 ± 0.005 per min.
As the next step, we examined the capability of the selected compounds to generate ROS in the presence or absence of NADH/NADPH dehydrogenase (Table 1). ROS can be generated by NADH/NADPH-dehydrogenase via the one electron reduction of a quinone ring of 1,4-NQs. Unstable half-reduced quinones (semiquinones) transfer electrons to molecular oxygen, thus generating superoxide anion radicals (O2^●-), which are converted by SOD to hydrogen peroxide. We believe that our assay measuring compound’s ability to generate H2O2 in the presence or absence of NADH/NADPH dehydrogenase more closely resembles conditions inside the cell than the assay designed to measure compound’s redox potential values. […] To determine the ability of compounds to induce ROS, compounds were incubated for 4 h at 37°C with and without NADH/NADPH-dehydrogenase in the presence of NADPH as an electron donor and SOD to convert generated superoxide radicals into hydrogen peroxide. At the end of incubation, 10-acetyl-3,7-dihydroxyphenoxazine (ADHP) and horseradish peroxidase (HRP) were added to the reaction and the level of HRP-mediated formation of the fluorogenic product, resorufin, was measured on a plate reader. ROS production was detected in reactions with either the toxic or non-toxic compounds.

[10] = octanol/water, read-out: LogD, pH = 7.4

T1 sequence (P04406 whole entry): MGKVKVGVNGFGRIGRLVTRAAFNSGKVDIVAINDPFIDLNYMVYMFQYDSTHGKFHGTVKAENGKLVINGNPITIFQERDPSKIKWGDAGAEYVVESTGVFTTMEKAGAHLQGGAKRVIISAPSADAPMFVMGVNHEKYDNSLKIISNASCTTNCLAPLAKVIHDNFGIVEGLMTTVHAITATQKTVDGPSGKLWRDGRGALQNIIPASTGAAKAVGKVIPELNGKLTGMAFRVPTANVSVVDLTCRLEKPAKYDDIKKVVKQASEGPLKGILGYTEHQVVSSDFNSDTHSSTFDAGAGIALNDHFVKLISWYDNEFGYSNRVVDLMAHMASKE

Compound	remaining activity at 30 µM [1]	EC50 [2]	ROS increase, % Hepatocytes [3]	activity at 30 µM [4]	logD [5, 10]	CC50 ([6]; primary hepatocytes)	EC50 [7]	CC50 [7]	stimulation of Complex I activity [8]	Mito Check I, enzyme residual activity as compared to DMSO-treated sample [8]	H2O2 generation, NADH/NADPH dehydrogenase - [9]	H2O2 generation, NADH/NADPH dehydrogenase + [9]	logD [5]	CC50 [6]	reduced anti-cancer activity ([7]; versus compound 1)	inhibition of mitochondrial function (Complex I) [8]	increase in anti-cancer activity ([7]; versus compound 15)	improved anti-cancer activity ([7]; versus compound 49)
NC1=C(Cl)C(=O)c2ccccc2C1=O [compound 1, 2-chloro-3-amino-1,4-NQ]	100%	17 µM	156%	331%	2.01	17 µM	8.4 µM	8.4 µM	more than 30%	145%	4.1 µM	7.6 µM	–	–	–	–	–	–
CCNC1=C(Cl)C(=O)c2ccccc2C1=O [compound 3]	100%	81.9 µM	115%	182%	1.01	81.9 µM	59 µM	59 µM	–	93%	3.9 µM	6.3 µM	–	–	–	–	–	–
CC1CN1C1=C(Cl)C(=O)c2ccccc2C1=O (centres unmarked) [compound 16]	100%	78 µM	–	637%	–	–	6.9 µM	6.9 µM	–	58%	2.1 µM	3.8 µM	0.7	78 µM	–	–	–	–
O=C1C(Cl)=C(Nc2ccccc2)C(=O)c2ccccc21 [compound 39]	93%	2.3 µM	174%	–	0.13	2.3 µM	3.9 µM	3.9 µM	–	91%	1.6 µM	2.8 µM	–	–	8 fold	9%	–	–
COC1=C(N(C)C)C(=O)c2ccccc2C1=O [compound 53]	95%	> 90 µM	117%	446%	0	–	23.4 µM	23.4 µM	–	51%	1.5 µM	2.5 µM	–	–	–	–	–	–
COC1=C(N2CC2)C(=O)c2ccccc2C1=O [compound 54]	73%	> 90 µM	–	675%	–	–	7.5 µM	7.5 µM	–	84%	2.4 µM	3.9 µM	0.31	–	–	–	–	–
CC1=C(N2CC2)C(=O)c2ccccc2C1=O [compound 55]	100%	> 90 µM	–	416%	–	–	3.1 µM	3.1 µM	–	72%	2.1 µM	3.3 µM	0.12	> 90 µM	–	–	2 fold	–
O=C1C=C(SCCO)C(=O)c2ccccc21 [compound 60]	88%	3.3 µM	386%	–	2.99	3.3 µM	6.2 µM	6.2 µM	more than 30%	212%	6.9 µM	12.7 µM	–	–	–	–	–	–
CCNC1=CC(=O)c2ncccc2C1=O [compound 66]	93%	> 90 µM	173%	626%	2.87	–	4.5 µM	4.5 µM	more than 30%	158%	5.4 µM	10.3 µM	–	–	–	–	–	more than 30 fold
